Assay results as given in article PMC8126654, “Novel Pan-Pim Kinase Inhibitors With Imidazopyridazine and Thiazolidinedione Structure Exert Potent Antitumor Activities” (Frontiers in Pharmacology, 2021).
Read-outs that look alike come from different tables or passages of the source. Blank lines part the entries; values can stand above or below the compound they belong to.

Experiments:
FLT3 = target: T1, FLT3 (Homo sapiens, UniProt P36888); experiment: FLT3 kinase activity assay (FRET-based Z'-LYTE); format: biochemical; conditions: ATP 500 µM; read-out: IC50 against FLT3 kinase
T1 construct: purchased Life Technologies; Thermo Fisher Scientific Inc
T1 sequence (P36888 27-993): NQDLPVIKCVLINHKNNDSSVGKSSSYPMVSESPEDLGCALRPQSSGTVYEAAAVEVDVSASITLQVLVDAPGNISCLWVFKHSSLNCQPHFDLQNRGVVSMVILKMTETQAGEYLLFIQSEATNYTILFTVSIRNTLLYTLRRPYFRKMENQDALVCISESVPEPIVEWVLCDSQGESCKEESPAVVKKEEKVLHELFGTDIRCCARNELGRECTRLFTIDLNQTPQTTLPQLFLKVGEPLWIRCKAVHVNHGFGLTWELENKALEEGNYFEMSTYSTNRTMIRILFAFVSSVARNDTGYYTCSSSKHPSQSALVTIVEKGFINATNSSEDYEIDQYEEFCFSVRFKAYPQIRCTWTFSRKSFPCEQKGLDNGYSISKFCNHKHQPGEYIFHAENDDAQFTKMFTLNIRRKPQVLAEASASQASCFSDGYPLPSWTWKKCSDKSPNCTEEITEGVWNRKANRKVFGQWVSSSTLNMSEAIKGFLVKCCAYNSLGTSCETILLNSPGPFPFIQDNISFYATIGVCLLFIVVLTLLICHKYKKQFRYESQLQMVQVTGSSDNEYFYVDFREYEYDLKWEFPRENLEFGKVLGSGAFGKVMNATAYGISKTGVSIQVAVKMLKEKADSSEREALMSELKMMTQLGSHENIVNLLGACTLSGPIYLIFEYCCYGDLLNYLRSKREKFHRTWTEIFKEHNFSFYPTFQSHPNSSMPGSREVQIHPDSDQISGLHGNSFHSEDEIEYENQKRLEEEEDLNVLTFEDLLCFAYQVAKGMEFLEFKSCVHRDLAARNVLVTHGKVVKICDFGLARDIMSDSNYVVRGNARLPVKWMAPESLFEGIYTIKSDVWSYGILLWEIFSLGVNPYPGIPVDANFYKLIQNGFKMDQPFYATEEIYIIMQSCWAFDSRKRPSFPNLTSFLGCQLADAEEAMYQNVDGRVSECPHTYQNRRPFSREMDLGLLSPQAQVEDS
Procedure: (§1) The inhibition ratios of test compounds for Pim-1, 2 (Life Technologies; Thermo Fisher Scientific Inc., MA, United States), 3 (Merck KgaA), and FLT3 (Life Technologies; Thermo Fisher Scientific Inc., MA, United States) were determined using a modified FRET-based Z′-LYTE kinase assay kit (Invitrogen; Thermo Fisher Scientific Inc.). The Ser/Thr 7 peptide and Tyr-2 peptide were used as substrates for Pim kinases and FLT3, respectively. The reactions were carried out in a 384-well plate with a 10 µL reaction volume per well containing 1 µM substrates in 50 mM HEPES buffer with pH 7.5, 0.01% BRIJ-35, 10 mM MgCl2, 1 mM EGTA, and an appropriate amount of kinases (Pim-1: 0.03 μg/ml, Pim-2: 0.2 μg/ml, Pim-3: 0.2 μg/ml, FLT3: 0.1 μg/ml) with test compounds. The final reaction concentrations of ATP were 400, 5, 100, and 500 µM for Pim-1, 2, 3, and FLT3 respectively. After 1 h incubation, reactions were developed and terminated, and fluorescence ratios were calculated following the manufacturer’s protocol.

cancer cell lines = experiment: Cytotoxicity assay for cell survival (cancer cell proliferation); format: cell-based; conditions: 96 hours; read-out: IC50 for proliferation of a broad spectrum of cancer cell lines (range)
Excerpt: We obtained colon cancer HCT116 and HT-29 cells, prostate cancer PC-3, DU145, and LNCaP cells, lung cancer NCI-H460 and NCI-H522 cells, breast cancer MDA-MB-231 cells, AML MV-4-11 cells, and chronic myeloid leukemia (CML) K-562, MEG-01, and KU812 cells from American Type Culture Collection (Manassas, VA, United States); stomach cancer MKN45 cells from the Health Science Research Resources Bank (Osaka, Japan); pancreatic cancer AsPC-1 and MIA PaCa-2, and lung cancer A549 cells from DS Pharma Biomedical (Osaka, Japan). All cell lines were cultured in RPMI1640 medium (Life Technologies; Thermo Fisher Scientific Inc.) with 10% (v/v) fetal bovine serum (FBS; Sigma-Aldrich; Merck KgaA) at 37°C in 5% CO2.
Cells were seeded in 96-well plates and test compounds were added to the cultures at several concentrations.

PC-3 = experiment: Immunoblot analysis of phosphorylation of Pim kinase substrates, PC-3; format: cell-based; conditions: PC-3, 4 h
Procedure: (§2) Cells were plated overnight and then treated with test compounds for 4 hours. Then, the cells were lyzed in solubilization buffer [10 mM Tris-HCl (pH7.4), 0.1% (w/v) NP-40, 0.1% (w/v) sodium deoxycholate, 0.1% (w/v) SDS, 0.15 M NaCl, 1 mM EDTA, 10 µM aprotinin] with phosphatase inhibitor cocktails (Nakarai Tesque, Kyoto, Japan), and subjected to SDS-PAGE using 15% (w/v) gels under reducing conditions. The separated proteins were electrotransferred to Immobilon transfer membranes (Merck Millipore, Darmstadt, Germany). Then, each membrane was reacted with primary antibodies, which were subsequently complexed with appropriate horseradish peroxidase-conjugated secondary antibodies. Signals were detected using the ECL Western Blotting Detection System (GE Healthcare Life Sciences) and protein expression was quantified with a LAS-3000 Luminescent Image Analyzer (GE Healthcare Life Sciences). The protein bands were quantified using ImageQuant TL software (GE Healthcare Life Sciences).

[1] = cited from earlier work
Pim-1 [2] = target: T2, Pim-1 (Homo sapiens, UniProt P11309); experiment: In vitro Pim kinase activity assay (FRET-based Z'-LYTE), Pim-1; format: biochemical; conditions: ATP 400 µM; read-out: IC50 values for enzyme activities, Pim-1
T2 construct: purchased Life Technologies; Thermo Fisher Scientific Inc
T2 sequence (P11309 whole entry): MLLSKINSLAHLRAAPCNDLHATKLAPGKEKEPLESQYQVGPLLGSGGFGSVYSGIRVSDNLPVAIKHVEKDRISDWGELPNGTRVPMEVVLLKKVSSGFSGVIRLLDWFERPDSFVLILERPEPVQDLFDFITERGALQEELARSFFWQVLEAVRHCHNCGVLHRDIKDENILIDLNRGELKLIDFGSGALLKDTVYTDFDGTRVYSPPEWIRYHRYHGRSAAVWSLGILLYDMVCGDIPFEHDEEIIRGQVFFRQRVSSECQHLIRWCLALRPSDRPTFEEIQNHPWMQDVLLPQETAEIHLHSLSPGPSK
Procedure: as §1

Pim-2 = target: T3, Pim-2 (Homo sapiens, UniProt Q9P1W9); experiment: In vitro Pim kinase activity assay (FRET-based Z'-LYTE), Pim-2; format: biochemical; conditions: ATP 5 µM; read-out: IC50 values for enzyme activities, Pim-2
T3 construct: purchased Life Technologies; Thermo Fisher Scientific Inc
T3 sequence (Q9P1W9 whole entry): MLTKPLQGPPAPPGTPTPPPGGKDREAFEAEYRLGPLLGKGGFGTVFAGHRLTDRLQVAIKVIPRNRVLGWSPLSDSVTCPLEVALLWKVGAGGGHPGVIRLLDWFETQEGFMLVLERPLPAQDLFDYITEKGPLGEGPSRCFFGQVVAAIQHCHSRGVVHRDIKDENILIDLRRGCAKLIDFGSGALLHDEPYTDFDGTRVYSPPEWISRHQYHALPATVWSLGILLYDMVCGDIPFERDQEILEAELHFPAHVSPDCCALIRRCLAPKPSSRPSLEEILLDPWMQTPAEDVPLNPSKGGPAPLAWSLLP
Procedure: as §1

Pim-3 = target: T4, Pim-3 (Homo sapiens, UniProt Q86V86); experiment: In vitro Pim kinase activity assay (FRET-based Z'-LYTE), Pim-3; format: biochemical; conditions: ATP 100 µM; read-out: IC50 values for enzyme activities, Pim-3
T4 construct: purchased Merck KgaA
Procedure: as §1

Pim-1 [3] = target: T2, Pim-1; experiment: Binding detection based on SPR platform (BIACORE T200); conditions: 6.5, 13, 25, or 50 µM
Procedure: The interactions between test compounds and Pim-1 were detected by surface plasmon resonance platform BIACORE T200 (GE Healthcare Life Sciences, Buckinghamshire, England). Pim-1 was diluted to 20 μg/ml in 10 mM acetate buffer (pH 5.0), and then immobilized as a ligand in the N-hydroxysuccinimide/ethyl 3-(3-dimethylaminopropyl) carbodiimide-pre-activated CM5 sensor chip, following blocking by ethanolamine. Test compounds were diluted at 6.5, 13, 25, or 50 µM in a vehicle of 5% DMSO (v/v) in phosphate buffered saline (PBS). The dilutions were injected as analyte flow liquid phase with PBS containing 5% DMSO (v/v) as running buffer at a constant flow rate of 30 μL/min. A 2-min association time was set. The data were collected by Biacore Control Software. Kinetics and affinity parameters were evaluated with the Langmuir model (1:1) using BIA evaluation software.

MV-4-11 xenograft model = experiment: In vivo xenograft study, MV-4-11; set-up: species or system BALB/cSlc-nu/nu mice; conditions: for TGI (tumor growth inhibition): intravenously every 4 days
Procedure: (§3) For evaluation of antitumor activity, MV-4-11 (5 × 10^6 cells) or PC-3 cells (2 × 10^6 cells) were injected subcutaneously in the inguinal region of 6-week-old male BALB/cSlc-nu/nu mice (Japan SLC, Inc., Shizuoka, Japan), with Matrigel (BD Biosciences, San Jose, CA, USA). When the average tumor volume (length × width^2 × 1/2) had reached 40 to 120 mm^3, animals were randomized into groups of seven mice for vehicle control group of MV-4-11 xenograft model or five mice for the other groups (day 1). Test compounds were injected into the tail vein every 4 days from day 1, with an administration volume of 10 ml/kg. Tumor volumes were measured 2 times per week and body weights of the mice were monitored on 2 or 3 times per week as an indicator of tolerability. On day 22 or 16, antitumor activity was evaluated by weighing tumor tissues. Tumor growth inhibition, TGI (%), was calculated according to formula (1 − T/C) × 100, where T and C are the mean tumor weights for the experimental and vehicle control groups, respectively. The differences between the mean tumor weights for comparing groups were analyzed using Dunnett’s test, where P < 0.05 was considered to be significant.

PC-3 xenograft model = experiment: In vivo xenograft study, PC-3; set-up: species or system BALB/cSlc-nu/nu mice; conditions: for TGI (tumor growth inhibition): intravenously every 4 days
Procedure: as §3

[4] = test system: phosphorylation level of 4E-BP in PC-3 tumors; experiment: Pharmacodynamics study in PC-3 xenograft tumors (phospho-4E-BP immunoblot); format: in vivo, mice; conditions: single dose 187.5 mg/kg
Procedure: as §2
Tumors were resected 1, 2, 6, or 24 h after injection and lyzed for immunoblot analysis.

[5] = experiment not completed (data not shown)

SMILES: CN1CCC(CNc2ccc3ncc(-c4cccc(OC(F)(F)F)c4)n3n2)CC1 [SGI-1776]
- Reason for termination of clinical study ([1]; ref NCT00848601): dose-limiting toxicity

SMILES: CN1CCN(c2ccc(-c3cnc4ccc(/C=C5\SC(=O)NC5=O)nn34)cc2)CC1.CS(=O)(=O)O [YPC-21440 MsOH, (Z)-5-([3-{4-(4-methylpiperazin-1-yl)phenyl}imidazo[1,2-b]pyridazin-6-yl]methylene)thiazolidine-2,4-dione methanesulfonate]
- TGI (tumor growth inhibition) (MV-4-11 xenograft model; 62.5 mg/kg/dose): 26%
- Body weight decrease (as much as) compared with day 1 (MV-4-11 xenograft model; 125 mg/kg/dose): 5.2 ± 10%
- TGI (tumor growth inhibition) (MV-4-11 xenograft model; 125 mg/kg/dose): 60%
- Body weight decrease (as much as) compared with day 1 (MV-4-11 xenograft model; 187.5 mg/kg/dose): 7.1 ± 21%
- TGI (tumor growth inhibition) (MV-4-11 xenograft model; 187.5 mg/kg/dose): 77%
- Body weight loss (PC-3 xenograft model; [5]): serious body weight loss
- Tumor growth (PC-3 xenograft model; [5]): tended to be suppressed

SMILES: N[C@@H]1CCCN(c2c(/C=C3\SC(=O)NC3=O)cccc2-c2ccccc2)C1 [AZD1208]
- Reason for termination of clinical study ([1]; ref NCT01489722): lack of clinical response

SMILES: CCN1CCN(c2ccc(-c3cnc4ccc(/C=C5\SC(=O)NC5=O)nn34)cc2F)CC1.CS(=O)(=O)O [YPC-21817 MsOH, (Z)-5-([3-{4-(4-ethylpiperazin-1-yl)-3-fluorophenyl}imidazo[1,2-b]pyridazin-6-yl]methylene)thiazolidine-2,4-dione methanesulfonate]
- TGI (tumor growth inhibition) (MV-4-11 xenograft model; 62.5 mg/kg/dose): 20%
- TGI (tumor growth inhibition) (MV-4-11 xenograft model; 125 mg/kg/dose): 39%
- TGI (tumor growth inhibition) (MV-4-11 xenograft model; 187.5 mg/kg/dose): 70%
- Serious decrease in body weight (MV-4-11 xenograft model; evaluation period): not observed
- TGI (tumor growth inhibition) (PC-3 xenograft model; 62.5 mg/kg/dose): 0.92%
- TGI (tumor growth inhibition) (PC-3 xenograft model; 125 mg/kg/dose): 8.4%
- TGI (tumor growth inhibition) (PC-3 xenograft model; 187.5 mg/kg/dose): 48%
- Serious decrease in body weight (PC-3 xenograft model; evaluation period): not observed
- Phosphorylation level of 4E-BP in tumors ([4]; 1, 2, and 6 hours after administration): signigficantly decreased
- Phosphorylation level of 4E-BP in tumors ([4]; 24 hours after administration): almost completely recovered

Now from value to compound, other results behind:

- IC50 (FLT3): 2000 nM
- Phosphorylation levels of Bad, 4EBP, and p21 (PC-3): decreased
SMILES: CCN1CCN(c2ccc(-c3cnc4ccc(/C=C5\SC(=O)NC5=O)nn34)cc2F)CC1 [YPC-21817, (Z)-5-([3-{4-(4-ethylpiperazin-1-yl)-3-fluorophenyl}imidazo[1,2-b]pyridazin-6-yl]methylene)thiazolidine-2,4-dione]
- IC50 (cancer cell lines): 24 to 650 nM

- IC50 (Pim-1 [2]): 430 nM
- IC50 (Pim-2): 490 nM
- IC50 (Pim-3): 360 nM
SMILES: CCCCCN1CCN(c2ccc(-c3cnc4ccc(/C=C5\SC(=O)NC5=O)nn34)cc2F)CC1 [YPC-21813, (Z)-5-([3-{4-(4-pentylpiperazin-1-yl)-3-fluorophenyl}imidazo[1,2-b]pyridazin-6-yl]methylene)thiazolidine-2,4-dione]

- IC50 (Pim-1 [2]): > 1800 nM
- IC50 (Pim-2): > 1800 nM
- IC50 (Pim-3): > 1800 nM
- Binding to Pim-1 by SPR (Biacore) (Pim-1 [3]): did not bind to Pim-1
SMILES: CCCCCCCCCCN1CCN(c2ccc(-c3cnc4ccc(/C=C5\SC(=O)NC5=O)nn34)cc2F)CC1 [YPC-21814, (Z)-5-([3-{4-(4-decylpiperazin-1-yl)-3-fluorophenyl}imidazo[1,2-b]pyridazin-6-yl]methylene)thiazolidine-2,4-dione]

- IC50 (Pim-1 [2]): 120 nM
- IC50 (Pim-2): 190 nM
- IC50 (Pim-3): 540 nM
SMILES: CN1CCN(c2ccc(-c3cnc4ccc(/C=C5\SC(=O)NC5=O)nn34)cc2C(C)(C)C)CC1 [YPC-21867, (Z)-5-([3-{3-(tert-butyl)-4-(4-methylpiperazin-1-yl)phenyl}imidazo[1,2-b]pyridazin-6-yl]methylene)thiazolidine-2,4-dione]
